Laboratory results as given in ChEMBL document CHEMBL1201862, “PubChem BioAssay data set” (2004).
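Assay format: 96-well plates, 48-hour exposure. GI50 = concentration required for 50% inhibition of growth.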 Activity calls are given as the source filed them. No stated cut-off is given here; in the data, active = GI50 up to about 1.1 µM and inactive = higher.

Legend:
Experiment in all cases: inhibition of tumour cell growth, NCI panel, 48 h
MCF7 = system: MCF7
UO-31 = system: UO-31
HCT-116 = system: HCT-116
HCC 2998 = system: HCC 2998
NCI-H226 = system: NCI-H226
SK-MEL-28 = system: SK-MEL-28
SNB-75 = system: SNB-75
UACC-62 = system: UACC-62
A549 = system: A549
SK-MEL-5 = system: SK-MEL-5
UACC-257 = system: UACC-257
A498 = system: A498
KM12 = system: KM12
COLO 205 = system: COLO 205
CAKI-1 = system: CAKI-1
HL-60 = system: HL-60
DU-145 = system: DU-145
HOP-18 = system: HOP-18
SN12C = system: SN12C
PC-3 = system: PC-3
U-251 = system: U-251
T47D = system: T47D
M19-MEL = system: M19-MEL
SK-OV-3 = system: SK-OV-3
SF-268 = system: SF-268
RPMI-8226 = system: RPMI-8226
K562 = system: K562
SK-MEL-2 = system: SK-MEL-2
HT-29 = system: HT-29
XF498 = system: XF498
OVCAR-3 = system: OVCAR-3
SR = system: SR
BT-549 = system: BT-549
MOLT-4 = system: MOLT-4
SF-539 = system: SF-539
OVCAR-4 = system: OVCAR-4
MDA-MB-231 = system: MDA-MB-231
EKVX = system: EKVX
MDA-MB-435 = system: MDA-MB-435
NCI-H522 = system: NCI-H522
NCI/ADR-RES = system: NCI/ADR-RES
CCRF-CEM = system: CCRF-CEM
NCI-H23 = system: NCI-H23
OVCAR-8 = system: OVCAR-8
HOP-92 = system: HOP-92
LOX IMVI = system: LOX IMVI
TK-10 = system: TK-10
LXFL 529 = system: LXFL 529
SF-295 = system: SF-295
RXF 393 = system: RXF 393
MDA-N = system: MDA-N
KM-20L2 = system: KM-20L2
SNB-78 = system: SNB-78
NCI-H460 = system: NCI-H460
786-0 = system: 786-0
M14 = system: M14
Hs-578T = system: Hs-578T
HOP-62 = system: HOP-62
HCT-15 = system: HCT-15
DMS-273 = system: DMS-273
ACHN = system: ACHN
SNB-19 = system: SNB-19
OVCAR-5 = system: OVCAR-5
Malme-3M = system: Malme-3M
IGROV-1 = system: IGROV-1
DMS-114 = system: DMS-114
RXF 631 = system: RXF 631
SW-620 = system: SW-620
DLD-1 = system: DLD-1

In the case of `CCCCCCCCCCCCCCCC(=O)OCC1OC(n2ccc(N)nc2=O)C(O)C1O` (stereo not given), the GI50 (MCF7) is reported as 1.06 µM (active), the GI50 (UO-31) is reported as 1.67 µM (inactive) and the GI50 (HCT-116) is reported as 2.22 µM (inactive). The GI50 (HCC 2998) was 8.47 µM (inactive), the GI50 (NCI-H226) was > 100 µM (inactive) and the GI50 (SK-MEL-28) was 33.5 µM (inactive). The GI50 (SNB-75) was > 100 µM (inactive), the GI50 (UACC-62) was 11.4 µM (inactive) and the GI50 (A549) was 0.601 µM (active). For the same molecule, the GI50 (SK-MEL-5) was 18.5 µM (inactive), the GI50 (UACC-257) was 33.4 µM (inactive) and the GI50 (A498) was 4.49 µM (inactive). The GI50 (KM12) was > 100 µM (inactive), the GI50 (COLO 205) was 15 µM (inactive) and the GI50 (CAKI-1) was 5.36 µM (inactive). For the same molecule, the GI50 (HL-60) was 0.59 µM (active), the GI50 (DU-145) was 2.12 µM (inactive) and the GI50 (HOP-18) was 6.31 µM (inactive). For the same molecule, the GI50 (SN12C) was 9.95 µM (inactive), the GI50 (PC-3) was > 100 µM (inactive) and the GI50 (U-251) was 21.8 µM (inactive). The GI50 (T47D) was > 100 µM (inactive), the GI50 (M19-MEL) was 2.26 µM (inactive) and the GI50 (SK-OV-3) was 15.5 µM (inactive). For the same molecule, the GI50 (SF-268) was 12.1 µM (inactive), the GI50 (RPMI-8226) was > 87.9 µM (inactive) and the GI50 (K562) was 8.24 µM (inactive). The GI50 (SK-MEL-2) was > 100 µM (inactive), the GI50 (HT-29) was 35.2 µM (inactive) and the GI50 (XF498) was > 100 µM (inactive). The GI50 (OVCAR-3) was > 28.2 µM (inactive), the GI50 (SR) was 1.5 µM (inactive) and the GI50 (BT-549) was > 100 µM (inactive). For the same molecule, the GI50 (MOLT-4) was 0.0274 µM (active), the GI50 (SF-539) was > 100 µM (inactive) and the GI50 (OVCAR-4) was > 100 µM (inactive). The GI50 (MDA-MB-231) was > 100 µM (inactive), the GI50 (EKVX) was > 69 µM (inactive) and the GI50 (MDA-MB-435) was 6.75 µM (inactive). For the same molecule, the GI50 (NCI-H522) was 3.08 µM (inactive), the GI50 (NCI/ADR-RES) was > 48.3 µM (inactive) and the GI50 (CCRF-CEM) was 0.0106 µM (active). For the same molecule, the GI50 (NCI-H23) was 1.25 µM (inactive), the GI50 (OVCAR-8) was 2.39 µM (inactive) and the GI50 (HOP-92) was > 28.8 µM (inactive). The GI50 (LOX IMVI) was 4.7 µM (inactive), the GI50 (TK-10) was > 96.4 µM (inactive) and the GI50 (LXFL 529) was > 100 µM (inactive). For the same molecule, the GI50 (SF-295) was 44.8 µM (inactive), the GI50 (RXF 393) was > 85.3 µM (inactive) and the GI50 (MDA-N) was > 100 µM (inactive). The GI50 (KM-20L2) was > 24.8 µM (inactive), the GI50 (SNB-78) was > 100 µM (inactive) and the GI50 (NCI-H460) was 0.401 µM (active). For the same molecule, the GI50 (786-0) was 4.29 µM (inactive), the GI50 (M14) was 0.931 µM (active) and the GI50 (Hs-578T) was > 100 µM (inactive). The GI50 (HOP-62) was 0.403 µM (active), the GI50 (HCT-15) was > 42.2 µM and the GI50 (DMS-273) was 2.04 µM (inactive). The GI50 (ACHN) was 0.753 µM (active), the GI50 (SNB-19) was 16.9 µM (inactive) and the GI50 (OVCAR-5) was > 38 µM (inactive). For the same molecule, the GI50 (Malme-3M) was 5.28 µM (inactive) and the GI50 (IGROV-1) was > 100 µM (inactive).

In the case of `O=C(O)C(CS)NCc1c2ccccc2[n+]([O-])c2ccccc12` (stereo not given), the GI50 (UO-31) is reported as 17.5 µM (inactive), the GI50 (HCT-116) is reported as 5.87 µM (inactive) and the GI50 (HCC 2998) is reported as 36.1 µM (inactive). For the same molecule, the GI50 (NCI-H226) was 39.9 µM (inactive), the GI50 (SK-MEL-28) was 35.2 µM (inactive) and the GI50 (SNB-75) was 24 µM (inactive). The GI50 (UACC-62) was 47.4 µM (inactive), the GI50 (A549) was > 100 µM (inactive) and the GI50 (SK-MEL-5) was 30.7 µM (inactive). For the same molecule, the GI50 (UACC-257) was > 100 µM (inactive), the GI50 (A498) was 68.7 µM (inactive) and the GI50 (KM12) was 31.2 µM (inactive). The GI50 (COLO 205) was 78.3 µM (inactive), the GI50 (CAKI-1) was 83.6 µM (inactive) and the GI50 (DMS-114) was 22.8 µM (inactive). For the same molecule, the GI50 (HL-60) was 23.8 µM (inactive), the GI50 (HOP-18) was 97.1 µM (inactive) and the GI50 (SN12C) was 34.4 µM (inactive). For the same molecule, the GI50 (U-251) was 45.4 µM (inactive), the GI50 (M19-MEL) was 33.6 µM (inactive) and the GI50 (SK-OV-3) was > 100 µM (inactive). For the same molecule, the GI50 (SF-268) was 23 µM (inactive), the GI50 (RPMI-8226) was 26.3 µM (inactive) and the GI50 (K562) was 20.5 µM (inactive). For the same molecule, the GI50 (SK-MEL-2) was 45.6 µM (inactive), the GI50 (HT-29) was 37.8 µM (inactive) and the GI50 (OVCAR-3) was 81.7 µM (inactive). The GI50 (MOLT-4) was 13.8 µM (inactive), the GI50 (OVCAR-4) was 24.9 µM (inactive) and the GI50 (EKVX) was 54.3 µM (inactive). The GI50 (NCI-H522) was 94 µM (inactive), the GI50 (CCRF-CEM) was 21.5 µM (inactive) and the GI50 (NCI-H23) was 31 µM (inactive). For the same molecule, the GI50 (OVCAR-8) was 30.4 µM (inactive), the GI50 (HOP-92) was 2.49 µM (inactive) and the GI50 (LOX IMVI) was 28.8 µM (inactive). The GI50 (TK-10) was 95.1 µM (inactive), the GI50 (RXF 631) was 37.6 µM (inactive) and the GI50 (LXFL 529) was 23.8 µM (inactive). The GI50 (SF-295) was 58.1 µM (inactive), the GI50 (KM-20L2) was 37.2 µM (inactive) and the GI50 (SNB-78) was 38 µM (inactive). The GI50 (NCI-H460) was 41.4 µM (inactive), the GI50 (786-0) was 37.2 µM (inactive) and the GI50 (M14) was 46.1 µM (inactive). For the same molecule, the GI50 (HOP-62) was 66.1 µM (inactive), the GI50 (HCT-15) was 22.8 µM and the GI50 (DMS-273) was 31.6 µM (inactive). For the same molecule, the GI50 (ACHN) was 33.4 µM (inactive), the GI50 (SNB-19) was 38 µM (inactive) and the GI50 (OVCAR-5) was > 100 µM (inactive). The GI50 (SW-620) was 27.4 µM (inactive), the GI50 (Malme-3M) was 63.1 µM (inactive) and the GI50 (DLD-1) was 31.6 µM (inactive). For the same molecule, the GI50 (IGROV-1) was 33.2 µM (inactive).
